Tests used:
primary microglia = test: Intracellular Aβ degradation by primary microglia; assay type: cell-based, murine
Description: FIG. 5 illustrates graphs showing RXR agonists stimulate Aβ degradation.
Given the ability of RXR activation to drive LXR target gene expression, we predicted that agonist treatment should promote the proteolytic degradation of Aβ by microglia. […] Aβ uptake was unaffected by either drug treatment.

[1] = extended periods in humans; cited from earlier work
[2] = test system: ApoE knock out astrocytes; test: Intracellular Aβ degradation in ApoE knock out astrocytes; assay type: cell-based, murine; conditions: without ApoE
ApoE knock out microglia = test: Intracellular Aβ degradation in ApoE knock out microglia; assay type: cell-based, murine; conditions: without ApoE
[3] = therapeutic doses, FDA alert May 21, 2007; cited from earlier work
astrocytes = test: Inhibition of RXR mediated intracellular Aβ degradation by PPARγ or LXR inhibitors, astrocytes; assay type: cell-based; conditions: inhibitor pretreatment 1.5 hrs, Bexarotene 24 hours, 2 ug/mL soluble Aβ 18 hours
Description: (§1) FIG. 14 illustrates graphs showing RXR mediated intracellular Aβ degradation is prevented by inhibiting PPARγ or LXR.
(§2) To determine which heterodimer partners are involved in RXR activation driven Aβ intracellular degradation, we inhibited PPARγ and LXR by competitive inhibitors, TO and 22-s-Hydroxycholesterol, respectively. Aβ degradation mediated by either microglia (A) or astrocytes (B) is inhibited with either inhibitor to PPAR or LXR. Additionally, a co-treatment with both inhibitors reduces Aβ degradation further (FIG. 14).

microglia = test: Inhibition of RXR mediated intracellular Aβ degradation by PPARγ or LXR inhibitors, microglia; assay type: cell-based; conditions: inhibitor pretreatment 1.5 hrs, Bexarotene 24 hours, 2 ug/mL soluble Aβ 18 hours
Description: as §1, §2

CC1=C(/C=C/C(C)=C\C=C\C(C)=C\C(=O)O)C(C)(C)CCC1 [9cisRA]
Aβ uptake (primary microglia): unaffected | intracellular Aβ levels (primary microglia; drug 24 hours then 18 hours with 2 μg/mL soluble Aβ): dose-dependent reduction

C=C(c1ccc(C(=O)O)cc1)c1cc2c(cc1C)C(C)(C)CCC2(C)C [Bexarotene]
clinical safety profile [1]: good safety profile | intracellular Aβ degradation [2]: no effect | intracellular Aβ degradation (ApoE knock out microglia): no effect

CN(CCOc1ccc(CC2SC(=O)NC2=O)cc1)c1ccccn1 (stereo not drawn) [rosiglitazone, 5-[4-[2-(N-methyl-N-(2-pyridyl)amino]ethoxy]benzyl]thiazolidine-2,4-dione]
risk of death from all cardiovascular diseases [3]: even higher risk of death from all cardiovascular diseases | risk of heart attack [3]: significantly increased risk of heart attack

CC(C)CC[C@H](O)[C@@H](C)[C@H]1CC[C@H]2[C@@H]3CC=C4C[C@@H](O)CC[C@]4(C)[C@H]3CC[C@]12C [22-s-Hydroxycholesterol]
Bexarotene driven intracellular Aβ degradation (astrocytes): inhibited | Bexarotene driven intracellular Aβ degradation (microglia): inhibited
